# Laboratory results taken from patent US20190380978A1, “SOLID ORAL DOSAGE FORMS OF 2R,6R-HYDROXYNORKETAMINE OR DERIVATIVES THEREOF” (priority 2016, published 2019).
# Assays:
# [1] = system: Caco-2
# [2] = in vitro; conditions: human
# [3] = target: MAO-B (Homo sapiens, UniProt P27338); experiment: binding to monoamine oxidase B
# From the text: (§1) 2R,6R-hydroxynorketamine was investigated for binding to monoamine oxidases A and B, monoamine transporters, as well as a variety of 5HT receptors.
# [4] = target: 5-HT2A (Homo sapiens, UniProt P28223); experiment: binding to 5-HT2A receptor
# 5-HT2A, sequence (P28223 whole entry): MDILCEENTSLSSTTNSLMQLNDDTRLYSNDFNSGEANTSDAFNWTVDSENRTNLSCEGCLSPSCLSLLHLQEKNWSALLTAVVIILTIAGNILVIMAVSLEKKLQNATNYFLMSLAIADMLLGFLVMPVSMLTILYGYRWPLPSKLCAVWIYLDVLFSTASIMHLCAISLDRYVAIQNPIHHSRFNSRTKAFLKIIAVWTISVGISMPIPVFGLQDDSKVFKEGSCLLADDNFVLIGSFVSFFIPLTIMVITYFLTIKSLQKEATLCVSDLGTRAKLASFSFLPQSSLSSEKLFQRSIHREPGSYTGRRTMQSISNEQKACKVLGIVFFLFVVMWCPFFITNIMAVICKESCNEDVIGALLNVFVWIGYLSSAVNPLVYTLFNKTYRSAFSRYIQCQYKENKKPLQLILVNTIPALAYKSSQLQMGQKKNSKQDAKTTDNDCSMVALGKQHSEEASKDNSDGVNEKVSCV
# From the text: as §1
# [5] = target: 5-HT1B (Homo sapiens, UniProt P28222); experiment: binding to 5-HT1B receptor
# 5-HT1B, sequence (P28222 whole entry, species assumed): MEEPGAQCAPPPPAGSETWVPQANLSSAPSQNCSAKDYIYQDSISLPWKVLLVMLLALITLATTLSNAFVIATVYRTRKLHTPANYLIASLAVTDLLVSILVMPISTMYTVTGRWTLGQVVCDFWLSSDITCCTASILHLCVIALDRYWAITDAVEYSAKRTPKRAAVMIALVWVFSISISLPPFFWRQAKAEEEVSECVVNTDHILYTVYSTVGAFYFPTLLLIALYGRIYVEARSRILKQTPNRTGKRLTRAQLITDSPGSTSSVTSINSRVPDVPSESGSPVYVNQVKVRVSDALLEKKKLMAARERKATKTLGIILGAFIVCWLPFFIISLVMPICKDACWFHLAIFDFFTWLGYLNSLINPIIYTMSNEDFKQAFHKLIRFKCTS
# From the text: as §1
# [6] = turbidimetric aqueous solubility; format: physicochemical
# [7] = metabolite profiling; format: in vitro ADME; conditions: hepatocyte data with metabolite profiling
# Description: (§2) 2R,6R-hydroxynorketamine was investigated using an in vitro hepatocyte stability assay, during which 2R,6R-hydroxynorketamine was incubated with cryopreserved hepatocytes from 3 test species.
# [8] = target: dopamine transporter (Homo sapiens, UniProt Q01959); experiment: binding to dopamine transporter
# dopamine transporter, sequence (Q01959 whole entry): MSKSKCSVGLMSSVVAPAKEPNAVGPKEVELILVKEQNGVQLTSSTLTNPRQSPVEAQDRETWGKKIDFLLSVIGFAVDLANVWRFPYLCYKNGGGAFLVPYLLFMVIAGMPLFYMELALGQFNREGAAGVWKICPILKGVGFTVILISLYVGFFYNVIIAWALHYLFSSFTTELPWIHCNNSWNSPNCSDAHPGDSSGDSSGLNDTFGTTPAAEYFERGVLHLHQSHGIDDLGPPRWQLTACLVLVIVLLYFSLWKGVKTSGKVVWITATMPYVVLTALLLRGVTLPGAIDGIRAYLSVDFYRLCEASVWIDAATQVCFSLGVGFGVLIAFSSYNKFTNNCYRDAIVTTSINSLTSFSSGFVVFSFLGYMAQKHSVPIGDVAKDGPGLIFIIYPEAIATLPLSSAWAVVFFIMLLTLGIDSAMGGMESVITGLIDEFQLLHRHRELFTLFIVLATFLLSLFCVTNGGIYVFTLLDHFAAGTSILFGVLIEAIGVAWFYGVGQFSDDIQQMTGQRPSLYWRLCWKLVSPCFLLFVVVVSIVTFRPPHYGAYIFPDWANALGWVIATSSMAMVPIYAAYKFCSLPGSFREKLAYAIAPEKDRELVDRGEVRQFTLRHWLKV
# From the text: as §1
# [9] = system: plasma binding proteins; experiment: fraction unbound in 100% plasma, rat; format: in vitro ADME
# From the text: (§3) While the risk of DDIs due to displacement from plasma binding proteins (PPBs) is relatively low, it should be considered for drugs which display a high proportion PPB (fraction unbound (fu)<1%).
# (§4) The fu was investigated for 2R,6R-hydroxynorketamine using a 100% plasma from 4 test species.
# [10] = target: T1, 5-HT2C (Homo sapiens, UniProt P28335); experiment: binding to 5-HT2C receptor
# T1 sequence (P28335 33-458): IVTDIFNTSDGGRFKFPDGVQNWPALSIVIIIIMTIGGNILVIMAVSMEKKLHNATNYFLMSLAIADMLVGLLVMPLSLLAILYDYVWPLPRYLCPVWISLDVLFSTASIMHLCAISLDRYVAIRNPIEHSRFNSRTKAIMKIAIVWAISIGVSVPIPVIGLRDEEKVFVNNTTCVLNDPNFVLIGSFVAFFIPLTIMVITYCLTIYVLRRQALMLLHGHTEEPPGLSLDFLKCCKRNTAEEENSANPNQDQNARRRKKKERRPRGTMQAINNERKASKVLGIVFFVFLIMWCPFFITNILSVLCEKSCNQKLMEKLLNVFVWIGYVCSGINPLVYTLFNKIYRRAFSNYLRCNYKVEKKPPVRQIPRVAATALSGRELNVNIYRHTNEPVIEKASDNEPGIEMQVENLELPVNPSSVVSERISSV
# From the text: as §1
# [11] = target: norepinephrine transporter (Homo sapiens, UniProt P23975); experiment: binding to norepinephrine transporter
# norepinephrine transporter, sequence (P23975 whole entry, species assumed): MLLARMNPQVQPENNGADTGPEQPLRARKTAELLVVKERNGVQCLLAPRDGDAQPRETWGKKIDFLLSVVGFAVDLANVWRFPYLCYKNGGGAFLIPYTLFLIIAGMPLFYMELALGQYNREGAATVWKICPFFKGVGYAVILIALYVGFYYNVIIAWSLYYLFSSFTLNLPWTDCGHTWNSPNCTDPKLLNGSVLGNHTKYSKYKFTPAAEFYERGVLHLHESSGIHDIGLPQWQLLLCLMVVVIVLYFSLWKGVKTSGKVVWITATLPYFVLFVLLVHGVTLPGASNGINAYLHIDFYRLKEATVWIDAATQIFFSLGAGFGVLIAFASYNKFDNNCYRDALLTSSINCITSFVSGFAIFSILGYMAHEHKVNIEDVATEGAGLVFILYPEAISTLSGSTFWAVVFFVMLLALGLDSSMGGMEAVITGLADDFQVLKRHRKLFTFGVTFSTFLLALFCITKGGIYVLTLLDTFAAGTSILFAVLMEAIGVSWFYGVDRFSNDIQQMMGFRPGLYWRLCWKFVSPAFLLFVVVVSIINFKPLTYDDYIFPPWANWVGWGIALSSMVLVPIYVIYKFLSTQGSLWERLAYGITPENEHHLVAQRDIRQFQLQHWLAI
# From the text: as §1
# [12] = system: plasma binding proteins; experiment: fraction unbound in 100% plasma, dog; format: in vitro ADME
# From the text: as §3, §4
# [13] = target: T2, 5-HT1A (Homo sapiens, UniProt P08908); experiment: binding to 5-HT1A receptor
# T2 sequence (P08908 1-422): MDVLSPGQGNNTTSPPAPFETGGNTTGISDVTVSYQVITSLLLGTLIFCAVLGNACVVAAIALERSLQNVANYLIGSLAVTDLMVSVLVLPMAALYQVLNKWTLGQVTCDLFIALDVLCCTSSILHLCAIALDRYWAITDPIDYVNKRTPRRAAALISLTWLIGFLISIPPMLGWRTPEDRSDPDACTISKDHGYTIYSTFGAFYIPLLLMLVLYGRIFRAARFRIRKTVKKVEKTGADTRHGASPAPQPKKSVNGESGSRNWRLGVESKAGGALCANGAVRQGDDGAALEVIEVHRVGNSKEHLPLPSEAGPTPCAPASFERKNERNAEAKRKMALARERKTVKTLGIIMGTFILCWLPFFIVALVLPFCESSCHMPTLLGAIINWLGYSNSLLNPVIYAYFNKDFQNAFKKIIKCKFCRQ
# From the text: as §1
# [14] = system: cryopreserved hepatocytes; experiment: in vitro hepatocyte stability assay, human; format: in vitro ADME
# Description: as §2
# [15] = target: CYP2C9 (Homo sapiens, UniProt P11712); experiment: CYP inhibition assay, CYP2C9; format: in vitro ADME
# CYP2C9, sequence (P11712 whole entry): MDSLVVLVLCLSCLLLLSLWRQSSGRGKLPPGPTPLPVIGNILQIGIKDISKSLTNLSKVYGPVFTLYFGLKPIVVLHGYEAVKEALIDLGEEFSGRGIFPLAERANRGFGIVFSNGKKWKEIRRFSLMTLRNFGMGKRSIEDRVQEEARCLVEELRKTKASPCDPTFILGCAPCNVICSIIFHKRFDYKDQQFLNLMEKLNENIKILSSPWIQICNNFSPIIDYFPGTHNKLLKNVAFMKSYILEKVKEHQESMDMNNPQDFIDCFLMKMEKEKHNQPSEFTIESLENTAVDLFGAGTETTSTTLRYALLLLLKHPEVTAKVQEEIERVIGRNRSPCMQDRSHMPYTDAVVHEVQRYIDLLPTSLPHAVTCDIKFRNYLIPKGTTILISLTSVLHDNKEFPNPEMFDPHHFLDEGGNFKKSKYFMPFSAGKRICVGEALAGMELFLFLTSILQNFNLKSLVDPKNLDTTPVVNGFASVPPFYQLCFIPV
# From the text: (§5) Cytochrome P450s (CYPs) are a family of enzymes that play a primary role in the metabolism of a wide variety of drugs. 2R,6R-hydroxynorketamine was investigated for its potential to inhibit the action of 7 key CYP enzymes using an inhibition assay measuring reduction in the formation of metabolites compared to control.
# [16] = target: 5-HT transporter (Homo sapiens, UniProt P31645); experiment: binding to 5-HT transporter
# 5-HT transporter, sequence (P31645 whole entry, species assumed): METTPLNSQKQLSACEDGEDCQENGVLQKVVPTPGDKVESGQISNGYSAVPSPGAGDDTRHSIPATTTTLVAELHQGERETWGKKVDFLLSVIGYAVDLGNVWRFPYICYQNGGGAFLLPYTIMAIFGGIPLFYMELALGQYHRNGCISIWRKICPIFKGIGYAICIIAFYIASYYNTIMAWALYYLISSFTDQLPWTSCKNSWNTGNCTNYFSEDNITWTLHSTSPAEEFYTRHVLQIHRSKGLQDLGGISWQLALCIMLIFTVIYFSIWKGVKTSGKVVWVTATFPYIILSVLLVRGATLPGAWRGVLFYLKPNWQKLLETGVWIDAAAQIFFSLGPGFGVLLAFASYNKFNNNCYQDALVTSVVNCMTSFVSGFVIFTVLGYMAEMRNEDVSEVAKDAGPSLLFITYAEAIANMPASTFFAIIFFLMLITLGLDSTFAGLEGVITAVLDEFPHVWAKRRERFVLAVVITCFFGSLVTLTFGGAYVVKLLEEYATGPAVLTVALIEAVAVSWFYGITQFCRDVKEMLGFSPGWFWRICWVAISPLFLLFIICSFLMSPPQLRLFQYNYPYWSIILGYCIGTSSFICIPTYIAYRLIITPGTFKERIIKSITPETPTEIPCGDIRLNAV
# From the text: as §1
# [17] = target: 5-HT2B (Homo sapiens, UniProt P41595); experiment: binding to 5-HT2B receptor
# 5-HT2B, sequence (P41595 whole entry, species assumed): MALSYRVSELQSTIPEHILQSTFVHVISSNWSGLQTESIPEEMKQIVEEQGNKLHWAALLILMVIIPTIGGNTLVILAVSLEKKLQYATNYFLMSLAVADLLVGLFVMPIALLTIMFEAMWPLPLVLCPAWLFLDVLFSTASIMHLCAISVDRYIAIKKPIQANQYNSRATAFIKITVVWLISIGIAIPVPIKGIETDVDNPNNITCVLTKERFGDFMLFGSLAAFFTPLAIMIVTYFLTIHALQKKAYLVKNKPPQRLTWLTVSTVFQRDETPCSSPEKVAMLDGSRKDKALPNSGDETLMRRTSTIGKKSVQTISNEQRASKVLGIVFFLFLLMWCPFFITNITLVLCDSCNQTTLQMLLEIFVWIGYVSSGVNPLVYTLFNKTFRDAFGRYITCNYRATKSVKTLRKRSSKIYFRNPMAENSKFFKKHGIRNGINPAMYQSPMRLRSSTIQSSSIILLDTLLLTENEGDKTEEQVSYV
# From the text: as §1
# [18] = target: CYP2C19 (Homo sapiens, UniProt P33261); experiment: CYP inhibition assay, CYP2C19; format: in vitro ADME
# CYP2C19, sequence (P33261 whole entry): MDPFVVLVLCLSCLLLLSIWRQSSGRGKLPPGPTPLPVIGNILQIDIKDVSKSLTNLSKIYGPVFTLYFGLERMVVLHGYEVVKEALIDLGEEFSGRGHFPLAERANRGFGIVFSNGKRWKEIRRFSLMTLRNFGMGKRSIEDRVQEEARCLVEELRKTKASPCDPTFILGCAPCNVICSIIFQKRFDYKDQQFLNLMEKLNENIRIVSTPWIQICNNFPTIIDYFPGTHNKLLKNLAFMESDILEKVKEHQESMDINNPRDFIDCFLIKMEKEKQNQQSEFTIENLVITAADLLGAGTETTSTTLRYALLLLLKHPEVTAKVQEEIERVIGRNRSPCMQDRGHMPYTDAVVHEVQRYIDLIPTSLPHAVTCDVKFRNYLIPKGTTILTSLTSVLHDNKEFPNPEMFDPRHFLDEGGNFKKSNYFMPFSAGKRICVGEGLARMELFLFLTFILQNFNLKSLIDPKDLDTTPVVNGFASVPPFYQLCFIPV
# From the text: as §5
# MAO-B, sequence (P27338 whole entry, species assumed): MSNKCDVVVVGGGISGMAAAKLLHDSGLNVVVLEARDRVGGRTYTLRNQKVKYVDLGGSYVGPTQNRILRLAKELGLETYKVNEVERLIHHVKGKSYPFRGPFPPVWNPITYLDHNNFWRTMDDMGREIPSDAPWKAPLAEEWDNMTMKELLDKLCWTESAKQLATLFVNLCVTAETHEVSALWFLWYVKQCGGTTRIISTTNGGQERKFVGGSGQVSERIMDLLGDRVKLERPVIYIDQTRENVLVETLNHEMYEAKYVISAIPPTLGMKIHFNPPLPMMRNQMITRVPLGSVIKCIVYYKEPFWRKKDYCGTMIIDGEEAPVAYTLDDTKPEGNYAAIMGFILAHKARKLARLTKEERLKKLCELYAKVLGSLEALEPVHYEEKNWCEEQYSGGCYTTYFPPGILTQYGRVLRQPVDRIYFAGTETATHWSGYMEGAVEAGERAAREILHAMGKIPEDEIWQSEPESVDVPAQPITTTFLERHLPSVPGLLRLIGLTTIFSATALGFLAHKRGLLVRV
smiles,measurement,setting,value
"N[C@@]1(c2ccccc2Cl)CCC[C@@H](O)C1=O [2R,6R-hydroxynorketamine]",substrate of p-gp or Breast Cancer Resistance Protein (BCRP) efflux transporters,[1]; Caco-2,not a substrate
same,permeability,[1]; Caco-2 permeability assay,high
same,recovery,"[2]; Caco-2, Direction = A2B Mean % Recovery, Caco-2, A2B",98.9%
same,Papp A→B,"[2]; Caco-2, Direction = A2B Mean Papp, Caco-2, A2B, mean, n 2",45.7 ×10⁻⁶ cm/s
same,Papp A→B,"[2]; Caco-2, Direction = A2B Papp Replicate 1, Caco-2, A2B, replicate 1",49.1 ×10⁻⁶ cm/s
same,Papp A→B,"[2]; Caco-2, Direction = A2B Papp Replicate 2, Caco-2, A2B, replicate 2",42.3 ×10⁻⁶ cm/s
same,recovery,"[2]; Caco-2, Direction = B2A Mean % Recovery, Caco-2, B2A",103%
same,Papp B→A,"[2]; Caco-2, Direction = B2A Mean Papp, Caco-2, B2A, mean, n 2",50.7 ×10⁻⁶ cm/s
same,Papp B→A,"[2]; Caco-2, Direction = B2A Papp Replicate 1, Caco-2, B2A, replicate 1",52.8 ×10⁻⁶ cm/s
same,Papp B→A,"[2]; Caco-2, Direction = B2A Papp Replicate 2, Caco-2, B2A, replicate 2",48.5 ×10⁻⁶ cm/s
same,efflux ratio,"[2]; Caco-2, Efflux Ratio (Mean Papp B2A/Mean Papp A2B), Caco-2, without inhibitor",< 2
same,% Inhibition of Control Specific Binding,[3],−1%
same,% of Control Specific Binding,[3],100.4%
same,% Inhibition of Control Specific Binding,[4],0%
same,% of Control Specific Binding,[4],103.8%
same,binding to 5HT2A receptor subtype,[4],does not bind
same,% Inhibition of Control Specific Binding,[5],−2%
same,% of Control Specific Binding,[5],102.7%
same,binding to 5HT1B receptor subtype,[5],does not bind
same,estimated precipitation range lower bound,[6],100 µM
same,estimated precipitation range upper bound,[6],> 100 µM
same,solubility,[6],high solubility
same,phase I metabolism by CYP enzymes,[7],does not undergo phase I metabolism
same,route of metabolism and excretion,[7],glucuronidated and excreted via the renal system
same,% Inhibition of Control Specific Binding,[8],11%
same,% of Control Specific Binding,[8],87.2%
same,activity at dopamine transporters,[8],nor activity at dopamine transporters
same,"plasma protein binding (PPB), words",[9],low PPB
same,% Inhibition of Control Specific Binding,[10],10%
same,% of Control Specific Binding,[10],91.1%
same,binding to 5HT2C receptor subtype,[10],does not bind
same,% Inhibition of Control Specific Binding,[11],−16%
same,% of Control Specific Binding,[11],117.6%
same,"plasma protein binding (PPB), words",[12],low PPB
same,% Inhibition of Control Specific Binding,[13],5%
same,% of Control Specific Binding,[13],97.9%
same,binding to 5HT1A receptor subtype,[13],does not bind
same,CLint,[14]; Human hepatocytes,−1.07 gL/min/10^6 cells
same,hepatic clearance in humans,[14]; human hepatocyte stability assay,does not undergo hepatic clearance
same,inhibition of CYP2C9,[15],did not inhibit
same,inhibition at 0.4 µM,"[15]; human, 0.4 μM",4.59%
same,inhibition at 1 µM,"[15]; human, 1 μM",5.92%
same,inhibition at 4 µM,"[15]; human, 4 μM",5.8%
same,inhibition at 10 µM,"[15]; human, 10 μM",11.9%
same,inhibition at 40 µM,"[15]; human, 40 μM",-0.113%
same,inhibition at 100 µM,"[15]; human, 100 μM",-1.33%
same,% Inhibition of Control Specific Binding,[16],2%
same,% of Control Specific Binding,[16],102.0%
same,% Inhibition of Control Specific Binding,[17],5%
same,% of Control Specific Binding,[17],100.9%
same,binding to 5HT2B receptor subtype,[17],does not bind
same,inhibition of CYP2C19,[18],did not inhibit
same,inhibition at 0.4 µM,"[18]; human, 0.4 μM",-2.01%
same,inhibition at 1 µM,"[18]; human, 1 μM",-1.66%
same,inhibition at 4 µM,"[18]; human, 4 μM",1.85%
same,inhibition at 10 µM,"[18]; human, 10 μM",6.69%
same,inhibition at 40 µM,"[18]; human, 40 μM",8.25%
same,inhibition at 100 µM,"[18]; human, 100 μM",16.1%
